Reference: US20030188344A1 (priority 2000, published 2003)
Entries after “also recorded” stand apart in the source; their conditions may differ.

Tests used:
[1] = tested on: vir gene expression in wild-type strain A348; assay: vir induction assay, β-galactosidase reporter, wild-type strain; type: cell-based, A. tumefaciens; conditions: wild-type A348/pSW209
Protocol: (§1) vir Induction Assay. A. tumefaciens strains were grown overnight at 27° C. to an optical density of about 0.3-0.6 at 600 nm (OD600) in LB medium supplemented win appropriate antibiotics. Cells were then pelleted by centrifugation and resuspended to an OD600 of 0 1 per ml in sterilized induction medium (ABIM. pH 5.5) supplemented with either 1% glucose or 1% glycerol with or without 0.1% arabinose (w/v). The verious phenolic compounds tested were dissolved in a minimal amount of DMSO in water as mM stocks, and diluted with ABIM to the desired concentration (final DMSO concentration was no greater than 0.1%). The bacteria were incubated with at 28° C. for 8-16 hours and subsequently assayed for β-galactosidase activity by the method of Miller, 1972. ED50 values for the inducers evaluated were estimated from such dose response plots. Each assay value reported is the mean of three replicates; error bar indicates one standard deviation from the mean. Data are representative of three similar independent experiments.

[2] = tested on: vir gene expression in hypersensitive mutants (AB140, AB147); assay: vir induction assay, β-galactosidase reporter, phenol hypersensitive mutants; type: cell-based, A. tumefaciens; conditions: for vir inducing activity / hypersensitivity in mutants: hypersensitive mutants, e.g. AB140, versus wild-type
Protocol: as §1
To ensure that the mutants hypersensitive to AS were a result of a change in the vir gene induction pathway rather than a mutation in the reporter plasmid pAC2, other methods to analyze vir gene induction and the virulence response were investigated. First, all nine mutants were transformed with pSW209 carrying a virB::lacZ reporter construct. The β-galactosidase activities of all strains were hypersensitive in an AS dose-response study. The observed changes are not due to some artifact of the reporter plasmids as the expression of VirB10, one of the proteins of the virB operon on its Ti plasmid, in cells of AB140 was detectable after induction with 0.3 μM AS. Wild-type cells required 1 μM AS to produce detectable VirB10. Thus, the mutants are hypersensitive to AS when assaying either the virB^P/nptII reporter, the virB::lacZ reporter, or directly assaying expression of VirB10 from the native viral promoter on the Ti plasmid.

occ regulon = occ regulon induction (specificity control); type: cell-based, A. tumefaciens; conditions: same plasmid; data not shown
physchem = type: physicochemical; conditions: buffer
Protocol: Curiously, 1 appears the most hydrolytically labile of this class of structures, with a measured t1/2<4 hr at pH 5.5, and […] at pH 7. […] Moreover, from estimates of the surface area per seedling, the concentration of 1 around the radicle of one-week-old maize seedlings should be between […] and 10 mM, depending on whether a 10 μ or a 100 μ volume element is used to define the surface hydration. […] This inhibitory zone readily explains the observed difficulty transforming this organ with the bacterium.

vir gene expression = vir gene expression inhibition, β-galactosidase (lacZ under vir promoter); type: cell-based, A. tumefaciens
Protocol: Vir Induction Assay. A. tumefaciens strains were grown overnight at 27° C. to an OD of 0.3-0.6 in LB medium supplemented with appropriate antibiotics. Cells were then pelleted by centrifugation and resuspended to an OD of 0.1 per ml in sterilized induction medium (ABIM, pH 5.5) supplemented with either 1% glucose or 1% glycerol. The various inducer and Inhibitor compounds tested were dissolved in a minimal amount of DMSO in water as mM stocks, and diluted with ABIM to the desired concentration (final DMSO concentration was no greater than 0.1%). The bacteria were incubated with at 28° C. for 8-16 hr and subsequently assayed for β-galactosidase activity by the method of Miller (1986). IC50 values for the Inhibitors evaluated were estimated from such dose response plots. Each assay value reported is the mean of three replicates; error bar indicates one standard deviation from the mean. Data are representative of three similar independent studies.
The capacity of 1 to inhibit vir gene expression was tested by monitoring β-galactosidase activity in an A. tumefaciens strain carrying wild-type vir induction genes and a lacZ gene under the control of a vir promoter (Hess et al., 1991). […] A more precise test for specificity was available via the utilization of a plasmid containing a virA gene, the putative AS receptor, which contitutively expressed the vir genes in the absence of AS. […] Therefore, the inhibition by 1 occurs upstrean, of VirA activation.

[3] = tested on: A. tumefaciens strain A348/pAC2 and AB140/pAC2; assay: kanamycin resistant growth with pAC2 (virB promoter/nptII); type: cell-based; conditions: for kanamycin resistant growth of AB140 compared with wild-type (inducer sensitivity): liquid medium, AB140/pAC2 vs A348/pAC2 (FIG. 9); for survival on induction plates plus kanamycin: A348/pAC2, 40 μg/ml kanamycin
Protocol: Mutant Selection. […] Phenolic hypersensitive mutants were selected as follows. Individual colonies of A348/pAC2 were grown overnight in LB broth plus spectinomycin, and the progeny from each colony kept separate to ensure that each mutation was an individual event, not part of a clonal population. The bacteria were subsequently washed in ABIM medium, resuspended to an OD600 of approximately 0.1 and induced overnight in ABIM media plus 100 μM AS. The next day the cells had grown to an approximate OD600 of 1.0 and 2×10^5 to 2×10^6 bacteria were plated onto plates confining ABIM medium containing 10 μM AS and 40 μg/ml kanamycin. Colonies that grew on this selection medium were subsequently assayed for growth on plates containing kanamycin but no phenolic. Colonies that grew under these conditions are constitutive for kanamycin resistance and were not characterized further, while colonies that couldn't survive in this screen were characterized further.
The kanamycin resistance test of selected colonies in response to different doses of phenol was done in the following manner: after one night of induction in ABIM over a range of inducer concentrations, as described above, the bacteria were washed and subcultured into ABIM at a starting OD600 of approximately 0.1. The ABIM included phenolics at a range of concentrations between 0.1-1000 μM. At each concentration of inducer three cultures have kanamycin at a concentration of 20 μg/mL, while one culture has no kanamycin. After overnight culture the OD600 is determined and kanamycin resistant growth as a percentage of control is determined using the following calculation: [formula]

VirB10 expression = assay: VirB10 immunoblot; type: cell-based, A. tumefaciens
Protocol: Immunoblot. Cultures of different strains were induced overnight in ABIM containing 1% glycerol and 0.1% arabinose and varying phenolic concentrations. Samples from each culture, containing an equivalent OD600, were denatured by boiling in sample buffer for 3-10 minutes, and 10 μL from each sample was loaded onto 10% acrylamide gels and separated via SDSpolyacrylamide gel electrophoresis (PAGE). Proteins were transferred from the acrylamide gel to nitrocellulose purchased from Schleicher and Schell (Keene, N. H.) by electrotransfer. VirB 10 expression was examined using immunoblot procedures and antibodies described in Beaupre et al., 1997.

[4] = tested on: leaf explants of Nicotiana tabacum cv Havana 425; assay: tobacco leaf tumor (virulence) assay
Protocol: Virulence Assays The capacity of various strains of A. tumefaciens to induce tumors on leaf explants of Nicotiana tabacum cv Havana 425 was tested as described previously. Banta et al., 1994.
In this assay, bacteria and leaf explants are co-cultivated for two days at varying levels of AS and then transferred to antibiotic containing medium that stops bacterial growth but allows plant tumor growth. Banta et al., 1994. In the case of wild-type strain A348, some tumor formation is observed on the leaf explants co-cultivated in the absence of AS in the co-cultivation, as expected because of xenognostic phenols released from the wounded cells (FIG. 10). […] Importantly, the maximum number of tumors formed by both the wild-type strain and AB140 was approximately the same, consistent with the observation that AB140's hypersensitivity is not a result of simple overexpression of the vir genes.

[5] = tested on: VirA expression by native PvirA; conditions: with AS induction; cited from earlier work

COc1cc2c(c(OC)c1O)CCC2=O [D-indanone, 5-hydroxy-4,6-dimethoxyindanone]
vir inducing activity (virB::lacZ β-galactosidase) [1]: little changed | vir inducing activity / hypersensitivity in mutants [2]: hypersensitive

COc1c(O)ccc2c1CCC2=O [E-indanone, 5-hydroxy-4-methoxy-1-indanone]
vir inducing activity (virB::lacZ β-galactosidase) [1]: equivalent activity | vir inducing activity / hypersensitivity in mutants [2]: hypersensitive

COc1cc([C@@H]2C[C@H]2CO)ccc1O (relative stereo) [(+)-trans-CP, trans-[3-(4-Hydroxy-3-methoxy-phenyl)-cyclopropyl]methanol]
vir inducing activity (virB::lacZ β-galactosidase) [1]: virtually all the activity of the trans racemate; also recorded: active | vir inducing activity / hypersensitivity in mutants [2]: all the inducing activity of the racemate

COc1cc2c(cc1O)CCC2=O [Z-indanone, 5-hydroxy-6-methoxy-1-indanone]
vir inducing activity (virB::lacZ β-galactosidase) [1]: equivalent activity

COC(=O)/C=C/c1cc(OC)c2c(c1)C(C(=O)OC)C(c1ccc(O)c(OC)c1)O2 [(2R,3R)-(−)-trans-DDF, trans-dehydroferulate dimethylester, reference compound]
vir inducing activity (virB::lacZ β-galactosidase) [1]: all the inducing activity of the racemic mixture | vir inducing activity (virB::lacZ β-galactosidase) ([1]; listed as (−)-trans-DDF): active

COc1ccc2c(c1)OC(O)C(=O)N2OC (centres unmarked) [compound 1]
effect on induction of the occ regulon (occ regulon): unaffected | half-life (physchem; pH 5.5): < 240 min | half-life (physchem; pH 7): ~10 min | actual IC50 (vir gene expression; based on decomposition rates during the 8 hr assay period): nanomolar range | inhibition of vir gene expression (β-galactosidase activity) (vir gene expression; expression induced by 100 uM acetosyringone, wild-type vir induction genes): strongly inhibits | effect on constitutively activated VirA strain (FIG. 2) (vir gene expression; virA G665D expressing vir genes in the absence of AS): functions independently

COc1cc(C(C)=O)ccc1O [AV, acetovallinone]
kanamycin resistant growth of AB140 compared with wild-type (inducer sensitivity) [3]: not hypersensitive

COc1cc(C2CC2CO)ccc1O (stereo not drawn) [cis-CP]
vir inducing activity (virB::lacZ β-galactosidase) [1]: equivalent activity

COc1cc(C(C)=O)cc(OC)c1O [AS, Acetosyringone]
AS concentration giving detectable VirB10 (VirB10 expression; cells of AB140): 0.3 µM | AS concentration required to produce detectable VirB10 (VirB10 expression; wild-type cells): 1 µM | AS concentration for maximal capacity to induce tumors, relative to wild-type ([4]; hypersensitive mutant AB140 (FIG. 10)): log order lower concentration | number of tumors formed per infected leaf explant ([4]; wild-type strain A348, increasing phenol in co-cultivation medium (FIG. 10)): significantly increased | induction of VirA expression by native PvirA [5]: ~8 fold | sensitivity to AS compared with wild-type strain A348 ([2]; AB140, 0.1% arabinose present in induction medium): increased | AS concentration for response compared with wild-type ([2]; AB147 class, absence of arabinose): half-log lower concentration | vir inducing activity / hypersensitivity in mutants [2]: hypersensitive | survival on induction plates plus kanamycin ([3]; 30 μM AS): killed | survival on induction plates plus kanamycin ([3]; 100 μM AS): survive | kanamycin resistant growth of AB140 compared with wild-type (inducer sensitivity) [3]: one-half log lower concentration

COc1ccc2[nH]c(=O)oc2c1 [6-methoxy-2H-benzoxazolin-2(3H)-one]
activity of decomposition product (vir gene expression; under the assay conditions): inactive
